# Laboratory results reported in article PMC9822352, “Design, Synthesis and Evaluation of New Multifunctional Benzothiazoles as Photoprotective, Antioxidant and Antiproliferative Agents” (Molecules, 2022).
# Values joined by “and” are separate entries in the source; they are usually repeats but may differ in a detail not shown here. Equal values may be shown once.
# Columns and labels:
# [1] = FRAP (Ferric Reducing Antioxidant Power) assay; details: Trolox standard, 37 °C 10 min, 593 nm; mean ± SEM
# From the text: The FRAP (Ferric Reducing Antioxidant Power) test allows the measurement of the ability of antioxidants to reduce ferric ion to ferrous. This method represents one of the simplest, quickest and least expensive methods for the determination of reducing properties on oxidized species in vitro.
# The FRAP test (Ferric Reducing Antioxidant Power) is based on a colorimetric reaction and evaluates the ability of a sample of reducing ferric ions to ferrous ion while complexed with TPTZ (2,4,6-trispyridil-s-triazine). The FRAP solution was prepared from 0.1 M acetate buffer (pH 3.6), 10 mmol/L of TPTZ in 40 mM HCl, and 20 mM solution of FeCl3, with a 10:1:1 ratio, as described. Then, 1.9 mL of this solution was incubated with 0.1 mL of the sample solution at 37 °C for 10 min. The absorbance was read with a UV-Vis spectrophotometer at a 593 nm wavelength, relative to the maximum peak of absorbance of Fe^2+-TPTZ complex. Trolox® was used as a standard and the results are expressed as µmolTE/g.
# [2] = UV spectra in solution (MeOH-DMSO): λmax and molar extinction coefficient; type: physicochemical; details: for ε (molar extinction coefficient): at λmax, Lambert-Beer equation, in M-1 cm-1 (unit assumed); for λmax: solution in MeOH-DMSO, 290–400 nm
# Protocol: We next investigated the protective potential against UV radiation of each compound. Specifically, in vitro tests were conducted to determine the parameters related to absorption in the UV spectrum and those fundamental to the relative evaluation of the filtering potential and thus candidature as possible UV sunscreen ingredients of the candidates under examination, including λ critical and SPF (sun protection factor). Since the SPF is correlated to the UV quantitative absorption of the substances, the wavelength of maximum absorption (λmax) and the molar extinction coefficient (ε) of the derivatives in solution (MeOH-DMSO) were evaluated (Figures S1 and S2, Supplementary Materials). The UV spectra of the compounds BZTidr1–6 and BZTcin1–5 were recorded in the UVA-UVB range (290–400 nm) to evaluate their profile and compare it to that of the PBSA, a commercial UVB filter that has a λmax of 302 nm. After this peak, the absorbance of PBSA drops, reaching almost zero in the 325 nm range, and thus not providing absorption in the UVA region.
# Once the λmax of each derivative was established, the molar extinction coefficient ε was calculated by applying the Lambert-Beer equation (Table S1, Supplementary Materials): the higher this value, the greater the ability of the compound under examination to absorb UV radiation. […] The excellent values of BZTidr1, BZTidr2 and BZTidr3 are ascribed to the aforementioned hyperchromic shift. In regard to the BZTcin1–5 series, the molar extinction coefficients calculated were very high, and the best values were those of BZTcin1, BZTcin2 and BZTcin3, also attributable to the hyperchromic shift of the absorption spectra. For both series, the excellent absorption capacity of ultraviolet radiation can be traced back to the high π-type conjugation that characterizes them.
# melanoma Colo-38 cells = assay: Cell growth inhibition assay, Colo-38; type: cell-based, human; details: for IC50: Homo sapiens, 24 h incubation, cell count; for SI Colo-38 (selectivity index): IC50 HaCat / IC50 Colo-38
# Protocol: All synthesized compounds were tested in order to evaluate their in vitro antiproliferative activity. The human melanoma Colo-38 cell line was selected as a tumor skin model, while the immortalized human HaCaT keratinocytes were chosen as a control for the evaluation of the cytotoxicity towards non-cancerous cells and of the selectivity towards tumor cell lines. […] The selectivity index (SI) was also calculated and is the ratio between the IC50 of a given compound towards the non-cancerous cell line and the IC50 of the same compound towards the tumor cell line.
# Cell growth inhibition assays were carried out using human melanoma Colo-38 cells and skin HaCat keratinocytes cells. Human melanoma Colo-38 cells were kindly provided by Dr. Patrizio Giacomini (Laboratory of Immunology, Regina Elena Institute, Rome, Italy). HaCat cells were kindly provided by Istituto Zooprofilattico Sperimentale della Lombardia e dell’Emilia Romagna, Brescia, Italy. Cell lines were seeded using concentrations of 40,000 cells/mL and 25,000 cells/mL, respectively. Colo-38 cells were maintained in RPMI 1640, supplemented with 10% fetal bovine serum (FBS), penicillin (100 Units mL^−1), and streptomycin (100 µg mL^−1). HaCat cells were maintained in DMEM, supplemented with 10% fetal bovine serum (FBS), penicillin (100 Units mL^−1), streptomycin (100 µg mL^−1) and glutamine (2 mM); the incubation was performed at 37 °C in a 5% CO2 atmosphere. Tested compounds were dissolved in MeOH/DMSO (1:1) to obtain 50 mM stock solutions and diluted before cell treatment in MeOH 100%. The tested compounds were added at serial dilutions to the cell cultures (from 0.1 to 100 µM) and incubated for 24 h further. Cells were then harvested, suspended in physiological solution, and counted with a Z2 Coulter Counter (Coulter Electronics, Hialeah, FL, USA). The cell number/mL and the IC50 values were determined when untreated cells were in the log phase of cell growth. Cells treated with vehicles and untreated cells were placed in each plate.
# Colo-38 cell line = assay: Pro-apoptotic activity (Annexin V method), Colo-38; type: cell-based, human; details: for Dead (%) / Early Apoptosis (%) / Late Apoptosis (%): 24 h; for total apoptosis: Colo-38, 24 h, concentrations approaching IC50
# Protocol: (§1) The Annexin V assay was conducted at two concentrations approaching IC50 values toward the selected cell lines reported in Table 3. The complete set of data is reported in Table 4, while representative data from the analysis of the corresponding Muse Analyzer plots are shown in Figure 2.
# (§2) Apoptosis assays were performed with a Muse® Cell Analyzer instrument (Merck Millipore, Burlington, MA, USA) and the kit on Colo-38 and HaCat cell lines according to the manufacturer’s protocol. Cells were treated and exposed to the compounds for 24 h. This procedure is based on the detection of PS (PhosphatidylSerine) exposed on the external membrane of apoptotic cells by Annexin V. Four populations of cells can be distinguished using this assay: live, early apoptotic, late apoptotic and dead cells. The MUSE cell analyzer can discriminate “early” from “late” apoptosis since “early apoptotic cells” are Annexin V-positive and 7-AAD-negative, while “late apoptotic cells” are positive to both Annexin V and 7-AAD (7-aminoactinomycin D). The DNA intercalating molecule 7AAD (7-aminoactinomycin D) is used as an indicator of cell membrane integrity, since it binds DNA only in cells undergoing late apoptosis/death stage, when the membrane integrity is lost. Muse Annexin V and Dead Cell reagent were used to dilute the cells (1:1). After 20 min of incubation between cell samples and the kit at room temperature in the dark, the samples were analyzed using 0.01% Triton X-100 as positive control. The data were acquired and recorded using the Annexin V and Dead Cell software module (Millipore, Billerica, MA, USA).
# HaCat cell line = assay: Pro-apoptotic activity (Annexin V method), HaCat; type: cell-based, human; details: 24 h
# Protocol: as §1, §2
ε (molar extinction coefficient) [2],λmax [2] [nm],IC50 (melanoma Colo-38 cells) [µM],SMILES,FRAP [1],"Dead (%) (Colo-38 cell line; Colo-38, 5 µM)","Early Apoptosis (%) (Colo-38 cell line; Colo-38, 5 µM)","Late Apoptosis (%) (Colo-38 cell line; Colo-38, 5 µM)","Dead (%) (Colo-38 cell line; Colo-38, 50 µM)","Early Apoptosis (%) (Colo-38 cell line; Colo-38, 50 µM)",total apoptosis (Colo-38 cell line),SI Colo-38 (selectivity index) (melanoma Colo-38 cells),"Dead (%) (Colo-38 cell line; Colo-38, 10 µM)","Early Apoptosis (%) (Colo-38 cell line; Colo-38, 10 µM)","Late Apoptosis (%) (Colo-38 cell line; Colo-38, 10 µM)",also measured
32240.17,335.6,35.2 ± 5.52,"O=C(/C=C/c1ccc(O)cc1)Nc1nc2ccccc2s1 [BZTcin2, (E)-N-(benzo[d]thiazol-2-yl)-3-(4-hydroxyphenyl)acrylamide]",43.73 ± 2.83 µmolTE/g,2.05,1.70,16.90,4.45,1.85,over 30%,–,–,–,–,–
22387.64,347.7,8.31 ± 0.76,"O=C(/C=C/c1ccc(O)c(O)c1)Nc1nc2ccccc2s1 [BZTcin4, (E)-N-(benzo[d]thiazol-2-yl)-3-(3,4-dihydroxyphenyl)acrylamide]",4583.10 µmolTE/g and 4583.10 ± 22.68 µmolTE/g,1.00,3.85,8.50,–,–,does not induce apoptosis at any of the concentrations tested,4.59,1.35,3.20,8.00,Dead (%) (HaCat cell line; 5 µM): 0.41%; Early Apoptosis (%) (HaCat cell line; 5 µM): 1.83%; Late Apoptosis (%) (HaCat cell line; 5 µM): 3.05%; Dead (%) (HaCat cell line; 10 µM): 1.96%; Early Apoptosis (%) (HaCat cell line; 10 µM): 1.13%; Late Apoptosis (%) (HaCat cell line; 10 µM): 15.56%
20688.20,342.0,10 ± 6.12,"COc1ccc(/C=C/C(=O)Nc2nc3ccccc3s2)cc1O [BZTcin5, (E)-N-(benzo[d]thiazol-2-yl)-3-(3-hydroxy-4-methoxyphenyl)acrylamide]",2043.33 ± 12.03 µmolTE/g,–,–,–,3.50,1.40,> 20%,8.33,3.75,1.80,21.40,"Dead (%) (HaCat cell line; 50 µM): 0.19%; Early Apoptosis (%) (HaCat cell line; 50 µM): 2.29%; Late Apoptosis (%) (HaCat cell line; 50 µM): 3.73%; Dead (%) (HaCat cell line; 100 µM): 0.20%; Early Apoptosis (%) (HaCat cell line; 100 µM): 1.84%; Late Apoptosis (%) (HaCat cell line; 100 µM): 5.00%; Late Apoptosis (%) (Colo-38 cell line; Colo-38, 50 µM): 16.25%"
28637.64,335.3,92.6 ± 1.68,"O=C(N/N=C/c1ccc(O)cc1)c1nc2ccccc2s1 [BZTidr2, (E)-N′-(4-hydroxybenzylidene)benzo[d]thiazole-2-carbohydrazide]",1160.24 ± 17.34 µmolTE/g,–,–,–,–,–,–,–,–,–,–,–
